{"source": "paper PMC4735867", "about": "“Leukotriene E4 is a full functional agonist for human cysteinyl leukotriene type 1 receptor-dependent gene expression” (Scientific Reports, 2016)", "target": "T1, CysLT1 (cysteinyl leukotriene type 1 receptor) (Homo sapiens, UniProt Q9Y271)", "T1 construct": "gene CYSLTR1", "T1 sequence (Q9Y271 1-337)": "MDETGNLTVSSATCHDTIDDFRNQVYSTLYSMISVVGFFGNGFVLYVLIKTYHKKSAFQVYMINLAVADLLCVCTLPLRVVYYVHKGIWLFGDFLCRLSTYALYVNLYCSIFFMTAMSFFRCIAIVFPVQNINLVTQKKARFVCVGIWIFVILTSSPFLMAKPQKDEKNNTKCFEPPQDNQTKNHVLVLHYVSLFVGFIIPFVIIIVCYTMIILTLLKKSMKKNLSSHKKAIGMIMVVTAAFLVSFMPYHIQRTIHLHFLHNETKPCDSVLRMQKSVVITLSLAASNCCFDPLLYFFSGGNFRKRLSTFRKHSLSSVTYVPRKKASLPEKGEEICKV", "assay_type": "cell-based"}
{"smiles": "CC(C)(O)c1ccccc1CC[C@@H](SCC1(CC(=O)O)CC1)c1cccc(/C=C/c2ccc3ccc(Cl)cc3n2)c1", "note": "[Montelukast]", "values": [{"measurement": "antagonism (100 nmol/L) of LTD4/LTE4-induced calcium mobilisation and CCL4 expre", "result": "Montelukast fully inhibiting LTE4 responses in LAD2 as well as LTD4 responses in LAD2 and LUVA cells"}]}
